Test results reported in patent US20200375987A1, “METALLO-BETA-LACTAMASE INHIBITORS AND METHODS OF USE THEREOF” (priority 2018, published 2020).
≈ marks a conversion by molar mass, not a printed value.

Experiments:
[1] = system: Pseudomonas aeruginosa MB5890 Trans pFlp-Vim2 plasmid (efflux−); type: cell-based; settings: MB 5890 Trans pFlp-Vim2 plasmid, OprD+
[2] = system: Pseudomonas aeruginosa MB5919 Trans pFlp-Vim2 plasmid (efflux+); type: cell-based; settings: MB 5919 Trans pFlp-Vim2 plasmid, OprD+
[3] = system: Pseudomonas aeruginosa MB9862 (MB5890 trans pFlp-Vim1 plasmid, efflux−); type: cell-based; settings: MB 5890 trans pFlp-Vim1 plasmid (MB 9862), OprD+
[4] = system: Pseudomonas aeruginosa MB9861 (MB5919 Trans pFlp-Vim1 plasmid, efflux+); type: cell-based; settings: MB5919 Trans pFlp-Vim1 plasmid (MB 9861), OprD+
[5] = system: Pseudomonas aeruginosa MB9798 (MB5919 Trans IMP1 plasmid, efflux+); type: cell-based; settings: MB5919 Trans IMP1 plasmid (MB 9798), OprD+
Source text: (§1) The strain background is Pseudomonas aeruginosa PAO1. A wild-type (MB5919) and an isogenic strain in which multiple efflux pumps have been disrupted genetically were used. The MBL IMP-1, obtained from a clinical isolate was introduced into the strain pair by the following process:
(§2) Plasmid DNA (encoding IMP-1) was extracted from CL 5673 (IMP-1, P. aeruginosa clinical strain) by standard techniques. The plasmid DNA was transformed into parental MB5919 (oprD+, efflux+, inducible AmpC) and MB5890 (oprD+, efflux−, inducible AmpC) isogenic strains by electroporation. These transformed strains were plated onto cation-adjusted Muller-Hinton agar plates containing ceftazidime at 32 μg/mL (MB5919) and 16 μg/mL (MB5890) to select for those cells in which the IMP-1-expressing plasmid was introduced successfully, resulting in resistance to ceftazidime.
(§3) Minimum inhibitory concentrations of sentinel antibiotics were performed to quality control the new strains.

[6] = system: Pseudomonas aeruginosa MB5890 (oprD+, efflux−); type: cell-based; settings: MB 5890, OprD+
Source text: as §1, §2, §3

[7] = system: Pseudomonas aeruginosa PAO1 MB5919 (oprD+, efflux+); type: cell-based
Source text: as §1, §2, §3

[8] = system: Pseudomonas aeruginosa MB9799 (MB5890 Trans IMP1 plasmid, efflux−); type: cell-based; settings: MB 5890 Trans IMP1 plasmid (MB 9799), OprD+
Source text: as §1, §2, §3

VIM-2 = VIM-2 (Escherichia coli, UniProt Q5U7L7); test: Enzyme activity: determination of IC50 (VIM-2); type: biochemical; settings: read-out: VIM2 IC50
[9] = system: Serratia marcescens expressing IMP-1 (CL5741); test: Antibiotic potentiation activity: synergistic concentration (MITC95) with imipenem; type: cell-based; settings: imipenem 1 μg/mL; lowest concentration inhibiting 95% of growth; 35° C., 22-24 hours
Method in brief: (§4)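 Clinical MBL-expressing strains diluted into 1.1× CAMHB were incubated with compound plus imipenem at 1 μg/mL for 22–24 h at 35 °C, then absorbance was read. MITC95 is the lowest compound concentration giving 95% growth inhibition in the presence of imipenem.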

[10] = system: Escherichia coli expressing NDM-1 (CLB30016); test: as above; type: cell-based; settings: imipenem 1 μg/mL; lowest concentration inhibiting 95% of growth; 35° C., 22-24 hours
Method in brief: as §4

[11] = system: Klebsiella pneumoniae expressing VIM-1 (IHMA599644); test: as above; type: cell-based; settings: imipenem 1 μg/mL; lowest concentration inhibiting 95% of growth; 35° C., 22-24 hours
Method in brief: as §4

NDM-1 = NDM-1 (Klebsiella pneumoniae, UniProt C7C422); test: Enzyme activity: determination of IC50, fluorescence assay with CCF2-FA substrate (NDM-1); type: biochemical; settings: 1 pM enzyme, 1.25 μM CCF2-FA, 2 hours at 25° C.; read-out: NDM1 IC50
Chain of NDM-1 (C7C422 29-270, looked up, species assumed): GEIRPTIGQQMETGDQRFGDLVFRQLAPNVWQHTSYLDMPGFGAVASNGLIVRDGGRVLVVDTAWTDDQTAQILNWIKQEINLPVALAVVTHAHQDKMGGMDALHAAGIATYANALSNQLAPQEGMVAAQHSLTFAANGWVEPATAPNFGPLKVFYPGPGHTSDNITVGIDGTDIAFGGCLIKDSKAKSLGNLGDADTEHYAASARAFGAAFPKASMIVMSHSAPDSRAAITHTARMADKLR
Method in brief: (§5)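 IC50s come from 4-parameter fits of inhibition versus inhibitor concentration, tested from 20 μM down to 0.00063 μM. Enzyme, CCF2-FA (1.25 μM) and inhibitor react 2 h at 25° C, pH 7, with 10 μM ZnSO4 and 0.005% Tween-20.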

[12] = system: P. aeruginosa MB9798 (efflux WT, IMP-1); test: Efflux: concentration of MBL inhibitor restoring susceptibility to imipenem (MITC95), efflux+ strain; type: cell-based, Pseudomonas aeruginosa; settings: imipenem at 2 μg/mL in the presence of a class A, C, D serine β-lactamase inhibitor closely related to relebactam
Method in brief: (§6)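 Isogenic P. aeruginosa PAO1 strains, efflux+ and efflux−, transformed with IMP-1 plasmid, were tested by microbroth MIC with fixed imipenem, usually at CLSI breakpoint, plus fixed class A/C β-lactamase inhibitor against AmpC. MBL inhibitor was serially titrated; the concentration restoring susceptibility was recorded.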

[13] = system: P. aeruginosa MB9799 (efflux mutant, IMP-1); test: Efflux: concentration of MBL inhibitor restoring susceptibility to imipenem (MITC95), efflux− strain; type: cell-based, Pseudomonas aeruginosa; settings: imipenem at 2 μg/mL in the presence of a class A, C, D serine β-lactamase inhibitor closely related to relebactam
Method in brief: as §6

IMP-1 = IMP-1 (Serratia marcescens, UniProt P52699); test: Enzyme activity: determination of IC50, fluorescence assay with CCF2-FA substrate (IMP-1); type: biochemical; settings: 2 pM enzyme, 1.25 μM CCF2-FA, 2 hours at 25° C.; read-out: IMP1 IC50
Chain of IMP-1 (P52699 19-246, looked up, species assumed): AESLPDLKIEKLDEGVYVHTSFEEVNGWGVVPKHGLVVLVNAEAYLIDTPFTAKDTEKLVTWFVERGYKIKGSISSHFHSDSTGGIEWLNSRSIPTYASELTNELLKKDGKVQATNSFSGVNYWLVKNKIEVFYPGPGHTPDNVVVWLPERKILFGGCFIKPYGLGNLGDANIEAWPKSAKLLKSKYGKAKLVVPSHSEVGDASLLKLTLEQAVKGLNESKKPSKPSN
Method in brief: as §5

VIM-1 = VIM-1 (Pseudomonas aeruginosa, UniProt A0A0F7KYQ8); test: Enzyme activity: determination of IC50, fluorescence assay with CCF2-FA substrate (VIM-1); type: biochemical; settings: 30 pM enzyme, 1.25 μM CCF2-FA, 2 hours at 25° C.; read-out: VIM1 IC50
Method in brief: as §5

| Compound | MIC [1] | MIC [2] | MIC [3] | MIC [4] | MIC [5] | MIC [6] | MIC [7] | MIC [8] | IC50 (VIM-2) | CL5741 S.marcescens MITC95 uM IMP [9] | CLB30016 E.coli MITC95 NDM [10] | IHMA599644 K.pneumoniae MITC95 uM VIM [11] | IC50 (NDM-1) | MB9798 MITC95 P. aeruginosa Efflux WT [12] | MB9799 MITC95 P. aeruginosa Efflux Mutant [13] | IC50 (IMP-1) | IC50 (VIM-1) |
| --- | --- | --- | --- | --- | --- | --- | --- | --- | --- | --- | --- | --- | --- | --- | --- | --- | --- |
| O=C(N[C@H](CO)[C@H](O)c1ccc([N+](=O)[O-])cc1)C(Cl)Cl [Chloramphenicol] | 1 mg/L (≈ 3.09 µM) | > 64 mg/L | 2 mg/L (≈ 6.19 µM) | > 64 mg/L | > 64 mg/L | 1 mg/L (≈ 3.09 µM) | > 64 mg/L | 1 mg/L (≈ 3.09 µM) |  |  |  |  |  |  |  |  |  |
| CC(C)(O/N=C(\C(=O)N[C@@H]1C(=O)N2C(C(=O)[O-])=C(C[n+]3ccccc3)CS[C@H]12)c1csc(N)n1)C(=O)O [CAZ, ceftazidime] | 64 mg/L (≈ 117 µM) | 128 mg/L (≈ 234 µM) | > 256 mg/L | > 256 mg/L | 256 mg/L (≈ 468 µM) | 0.5 mg/L (≈ 0.915 µM) | 1 mg/L (≈ 1.83 µM) | 256 mg/L (≈ 468 µM) |  |  |  |  |  |  |  |  |  |
| C[C@@H](O)[C@H]1C(=O)N2C(C(=O)O)=C(S[C@@H]3CN[C@H](C(=O)N(C)C)C3)[C@H](C)[C@H]12 [Meropenem] | 32 mg/L (≈ 83.4 µM) | > 64 mg/L | 64 mg/L (≈ 167 µM) | > 64 mg/L | > 64 mg/L | 0.5 mg/L (≈ 1.3 µM) | 2 mg/L (≈ 5.22 µM) | 64 mg/L (≈ 167 µM) |  |  |  |  |  |  |  |  |  |
| C[C@@H](O)[C@H]1C(=O)N2C(C(=O)O)=C(SCCN=CN)C[C@H]12 [Imipenem] | 32 mg/L (≈ 107 µM) | > 64 mg/L | 64 mg/L (≈ 214 µM) | > 64 mg/L | 64 mg/L (≈ 214 µM) | 2 mg/L (≈ 6.68 µM) | 4 mg/L (≈ 13.4 µM) | 32 mg/L (≈ 107 µM) |  |  |  |  |  |  |  |  |  |
| CC[C@H]1OC(=O)[C@H](C)[C@@H](O[C@H]2C[C@@](C)(OC)[C@@H](O)[C@H](C)O2)[C@H](C)[C@@H](O[C@@H]2O[C@H](C)C[C@H](N(C)C)[C@H]2O)[C@](C)(O)C[C@@H](C)CN(C)[C@H](C)[C@@H](O)[C@]1(C)O [Azithromycin] | 1 mg/L (≈ 1.34 µM) | 32 mg/L (≈ 42.7 µM) | 1 mg/L (≈ 1.34 µM) | 32 mg/L (≈ 42.7 µM) | 2 mg/L (≈ 2.67 µM) | 1 mg/L (≈ 1.34 µM) | 16 mg/L (≈ 21.4 µM) | 2 mg/L (≈ 2.67 µM) |  |  |  |  |  |  |  |  |  |
| CCN1CCN(C(=O)N[C@@H](C(=O)N[C@@H]2C(=O)N3[C@@H]2SC(C)(C)[C@@H]3C(=O)O)c2ccccc2)C(=O)C1=O [Pipercillin] | 128 mg/L (≈ 247 µM) | > 256 mg/L | 128 mg/L (≈ 247 µM) | > 256 mg/L | 4 mg/L (≈ 7.73 µM) | 1 mg/L (≈ 1.93 µM) | 2 mg/L (≈ 3.86 µM) | 4 mg/L (≈ 7.73 µM) |  |  |  |  |  |  |  |  |  |
| NS(=O)(=O)c1c(S(=O)(=O)N[C@@H]2CCNC2)ccc(N2CCc3ncc(O)cc3C2)c1-c1nnn[nH]1 [Example 24, 4-(3-hydroxy-7,8-dihydro-1,6-naphthyridin-6(5H)-yl)-N1-[(3R)-pyrrolidin-3-yl]-3-(1H-tetrazol-5-yl)benzene-1,2-disulfonamide] |  |  |  |  |  |  |  |  | 0.74 nM | 1.56 µM | 0.39 µM | 3.13 µM | 0.28 nM | 25.00 µM | 3.13 µM | 1.39 nM | 0.19 nM |
| C[C@H](CN)NS(=O)(=O)c1ccc(N2CCCn3ccnc32)c(-c2nnn[nH]2)c1S(N)(=O)=O [Example 17, (R)-N1-(1-aminopropan-2-yl)-4-(6,7-dihydroimidazo[1,2-a]pyrimidin-8(5H)-yl)-3-(1H-tetrazol-5-yl)benzene-1,2-disulfonamide] |  |  |  |  |  |  |  |  | 1.11 nM | 0.78 µM | 0.78 µM | 1.56 µM | 0.36 nM | 1.56 µM | 0.78 µM | 2.17 nM | 0.22 nM |
| CNC(=O)c1nsc2c1CCN(c1ccc(S(=O)(=O)N[C@@H]3CCNC3)c(S(N)(=O)=O)c1-c1nnn[nH]1)C2 [Example 28, N-methyl-6-{4-[(3R)-pyrrolidin-3-ylsulfamoyl]-3-sulfamoyl-2-(1H-tetrazol-5-yl)phenyl}-4,5,6,7-tetrahydroisothiazolo[5,4-c]pyridine-3-carboxamide] |  |  |  |  |  |  |  |  | 0.48 nM | 1.56 µM | 0.78 µM | 6.25 µM | 0.21 nM | 12.50 µM | 3.13 µM | 0.28 nM | 0.15 nM |
